# Source: publication PMC5845537 (Frontiers in Pharmacology, 2018)
# Experiments:
# GABAA receptor = experiment: Ex vivo autoradiography, GABAA receptor competition binding ([3H]muscimol vs GABA), medial prefrontal cortex; set-up: species or system rat
# From the text: Rats used in ex vivo autoradiography (EVA) experiments were randomly assigned to one of four experimental groups characterized by either subchronic saline or PCP (as described above) along with either vehicle or vortioxetine-infused food (1.8 g vortioxetine/kg food weight, as described in the attentional set shifting task). On day 8 of PCP withdrawal, rats were anesthetized using CO2 and killed by decapitation. Brains were quickly and gently removed from the skull, flash frozen on powdered dry ice, and stored at -20°C until sectioning. […] After the tissue mounted on the microscope slides had dried thoroughly (in order to reduce damage from freezing), slides were packed into slide boxes with desiccator pellets, and stored at -20°C for use in EVA saturation binding and competition experiments.
# Each of the EVA procedures used in this study are variations on a similar theme. On the day of an experiment, slide-boxes were defrosted under a constant stream of air at room temperature until the boxes were dry and equilibrated with the environment in terms of temperature. […] Prior to any binding experiments, slides were preincubated in the appropriate preincubation buffer and dried at room temperature. Subsequently, tissue was incubated in an assay buffer containing a radioligand appropriate for the receptor of interest, then rinsed in assay buffer, and dried overnight in a vacuum desiccator. […] Finally, slides were opposed to a tritium-sensitive phosphor screen (Fuji imaging plate, GE Healthcare, Pittsburgh, PA, United States) for 5 days before being read in a phosphorimager (Typhoon FLA7000, GE Healthcare).
# Ki values for competition experiments were calculated separately for each animal, then aggregated to estimate sample averages and error. Ki values were calculated via non-linear regression, assuming a one-site competition binding, using GraphPad Prism version 6 for Windows (GraphPad software, La Jolla, CA, United States). pKi values were then calculated via the following formula: pKi = -Log10(Ki).
# C57BL/6NCrlBr mice = experiment: Mouse object recognition (OR) task after subchronic PCP; type: in vivo
# Procedure: Subchronic PCP treatment: The subPCP administration regimen used in rats was conducted as described in ([Goetghebeur and Dias, 2009]), which is a reliable method for inducing deficits in our hands. Rats in the subPCP experiments received injections of 5 mg/mL PCP or vehicle (saline) s.c. at a 1 mL/kg injection volume twice per day for 7 days. […] The mouse subPCP regimen was conducted as described in [Pedersen et al. (2014)]. Briefly, mice received vehicle or PCP (1.3 mg/mL concentration, 10 mL/kg injection volume) s.c once per day for 14 days followed by a 7-day washout prior to experimentation.
# Object placement and OR tasks in mice were executed in Perspex boxes measuring 40 × 40 cm with dark gray walls and a white floor. The tests were conducted during the light phase, yet in a subdued light (≈20 lux) and with the radio turned on in the background. Each trial was recorder by a camera mounted above the test arenas and later scored manually.
# Objects in the mouse OP task consisted of small stork sculptures made of plaster, which were 11.5 cm in height, with a roughly rectangle-shaped base 7.5 cm in length and 4.8 cm in width. For the mouse OR task, objects consisted of (1) small cylindrical pepper mills (purchased empty, having never contained spice) made of clear plastic (10.5 cm in height, 4.5 cm diameter), and (2) small salt shakers made of light blue glass (again, purchased empty; 11.5 cm in height, 4.5 cm diameter). […]
# The primary dependent measure for the OR and object placement tasks was a novel object or novel placement preference score, which were calculated from raw object investigation times using the following equation: Preference Score = ITN/(ITN + ITF)^∗100, where ITN represents the investigation time for the novel object or placement, and ITF represents the investigation for the familiar object or placement. Total exploration times from the information and test trials were analyzed for OP and OR experiments. Preference score and total exploration time data was analyzed for treatment group differences using a one-way between-subjects ANOVA. […]
# GABAB receptor = biological target: T1, GABAB receptor (Rattus norvegicus, UniProt Q9Z0U4); experiment: Ex vivo autoradiography, GABAB receptor saturation binding ([3H]CGP54626), medial prefrontal cortex
# T1 construct: 12 μm coronal sections were collected from an area ranging from approximately +4.2 mm to +2.3 mm anterior to Bregma; from tissue; host or cells: rat brain cryosections, medial prefrontal cortex (prelimbic and infralimbic)
# T1 sequence (Q9Z0U4 17-960 limits assumed): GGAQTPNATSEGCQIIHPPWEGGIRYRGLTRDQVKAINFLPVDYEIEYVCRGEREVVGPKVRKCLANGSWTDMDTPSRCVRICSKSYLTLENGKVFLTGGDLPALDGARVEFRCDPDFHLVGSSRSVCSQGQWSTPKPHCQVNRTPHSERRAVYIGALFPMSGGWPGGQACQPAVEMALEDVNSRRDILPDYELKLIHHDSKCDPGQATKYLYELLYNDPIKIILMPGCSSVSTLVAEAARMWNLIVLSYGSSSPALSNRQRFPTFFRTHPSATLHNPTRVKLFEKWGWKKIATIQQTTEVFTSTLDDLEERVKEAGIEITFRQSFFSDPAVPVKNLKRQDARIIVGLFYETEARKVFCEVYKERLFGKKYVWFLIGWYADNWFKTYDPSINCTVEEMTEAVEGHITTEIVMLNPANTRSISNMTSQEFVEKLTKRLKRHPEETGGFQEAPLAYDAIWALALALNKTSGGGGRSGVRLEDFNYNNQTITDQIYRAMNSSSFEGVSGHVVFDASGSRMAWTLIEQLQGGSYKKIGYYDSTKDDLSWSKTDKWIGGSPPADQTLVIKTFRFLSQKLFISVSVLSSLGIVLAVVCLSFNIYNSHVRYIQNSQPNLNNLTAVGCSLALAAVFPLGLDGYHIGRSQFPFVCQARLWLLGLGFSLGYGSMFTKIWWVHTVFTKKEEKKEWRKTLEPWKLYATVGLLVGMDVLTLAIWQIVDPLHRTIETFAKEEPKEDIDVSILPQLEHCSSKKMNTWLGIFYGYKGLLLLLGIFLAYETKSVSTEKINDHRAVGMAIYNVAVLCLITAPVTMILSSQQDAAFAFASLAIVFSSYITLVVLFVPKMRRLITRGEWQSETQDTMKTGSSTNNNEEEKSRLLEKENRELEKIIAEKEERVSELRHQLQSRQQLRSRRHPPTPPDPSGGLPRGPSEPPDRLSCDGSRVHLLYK
# T1 sequence (O88871 41-940 partner): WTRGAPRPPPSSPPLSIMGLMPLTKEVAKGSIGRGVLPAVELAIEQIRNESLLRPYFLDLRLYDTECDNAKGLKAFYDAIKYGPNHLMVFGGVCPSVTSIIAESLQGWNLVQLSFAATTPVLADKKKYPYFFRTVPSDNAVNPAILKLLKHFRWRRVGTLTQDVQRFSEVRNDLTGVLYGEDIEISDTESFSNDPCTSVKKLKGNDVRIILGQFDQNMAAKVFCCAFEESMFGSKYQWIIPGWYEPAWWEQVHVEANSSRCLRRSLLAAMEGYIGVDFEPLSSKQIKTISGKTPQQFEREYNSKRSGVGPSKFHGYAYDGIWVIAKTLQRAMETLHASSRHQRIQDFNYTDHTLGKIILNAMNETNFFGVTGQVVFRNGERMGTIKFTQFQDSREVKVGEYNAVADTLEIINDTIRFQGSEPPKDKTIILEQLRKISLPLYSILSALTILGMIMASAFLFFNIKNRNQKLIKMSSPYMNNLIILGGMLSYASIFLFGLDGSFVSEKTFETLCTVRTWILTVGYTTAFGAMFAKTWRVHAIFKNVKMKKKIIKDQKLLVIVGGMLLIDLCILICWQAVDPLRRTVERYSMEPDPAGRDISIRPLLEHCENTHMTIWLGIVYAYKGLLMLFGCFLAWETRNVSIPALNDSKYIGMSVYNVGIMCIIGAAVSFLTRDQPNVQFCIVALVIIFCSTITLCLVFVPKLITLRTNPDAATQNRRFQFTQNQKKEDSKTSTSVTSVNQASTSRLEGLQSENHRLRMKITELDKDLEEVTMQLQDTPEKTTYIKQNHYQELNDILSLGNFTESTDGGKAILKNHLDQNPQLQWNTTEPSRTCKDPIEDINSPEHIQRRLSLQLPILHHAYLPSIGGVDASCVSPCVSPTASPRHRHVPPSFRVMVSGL
# From the text: Rats used in ex vivo autoradiography (EVA) experiments were randomly assigned to one of four experimental groups characterized by either subchronic saline or PCP (as described above) along with either vehicle or vortioxetine-infused food (1.8 g vortioxetine/kg food weight, as described in the attentional set shifting task). On day 8 of PCP withdrawal, rats were anesthetized using CO2 and killed by decapitation. Brains were quickly and gently removed from the skull, flash frozen on powdered dry ice, and stored at -20°C until sectioning. Later, 12 μm coronal sections were collected from an area ranging from approximately +4.2 mm to +2.3 mm anterior to Bregma ([Paxinos and Watson, 1998]) using a cryostat (MicroM, Germany) and were thaw-mounted on glass microscope slides. This range of coronal slices was chosen in order to study the prelimbic and infralimbic subregions of the medial prefrontal cortex, given the importance of these regions in tests of executive function such as the attentional set shifting task ([Ng et al., 2007]). After the tissue mounted on the microscope slides had dried thoroughly (in order to reduce damage from freezing), slides were packed into slide boxes with desiccator pellets, and stored at -20°C for use in EVA saturation binding and competition experiments.
# Each of the EVA procedures used in this study are variations on a similar theme. On the day of an experiment, slide-boxes were defrosted under a constant stream of air at room temperature until the boxes were dry and equilibrated with the environment in terms of temperature. This step was undertaken in order to ensure brain tissue was not damaged by frosting due to a sudden change in humidity. Prior to any binding experiments, slides were preincubated in the appropriate preincubation buffer and dried at room temperature. Subsequently, tissue was incubated in an assay buffer containing a radioligand appropriate for the receptor of interest, then rinsed in assay buffer, and dried overnight in a vacuum desiccator. Specific information on the contents of the preincubation buffers, assay buffers and other assay conditions are listed in Table 2. Finally, slides were opposed to a tritium-sensitive phosphor screen (Fuji imaging plate, GE Healthcare, Pittsburgh, PA, United States) for 5 days before being read in a phosphorimager (Typhoon FLA7000, GE Healthcare). Analysis methods are listed below under statistical analyses.
# In saturation binding experiments, the concentration of the relevant radioligand in the assay buffer was systematically varied in order to determine the KD and Bmax of the receptor in question. At each radioligand concentration, the non-specific binding was determined on a separate slide by including a high concentration of a non-radioactive competitor ligand in the assay buffer along with the radioligand. For GABAA receptor saturation binding experiments, [^3H]muscimol was examined in quarter log steps ranging from 0.56 to 300 nM. For GABAB receptor saturation binding experiments, [^3H]CGP54626 was examined in quarter log steps ranging from 0.17 to 100 nM.
# For saturation binding studies, the primary dependent measures were pKD and Bmax. First, a standard curve was generated by measuring optical intensity from a slide of tritium standards (American Radiolabeled Chemicals, St. Louis, MO, United States) included in the slide cassette during exposure. A linear regression was performed to determine the relationship between intensity and bound radioactivity (measured on the standards in units of μCi/g). Next, average intensity values from the non-specific bound condition for each concentration of radioligand was subtracted from intensity values from the total bound condition to produce a measure of specific binding for each radioligand concentration. These optical intensity values were transformed into bound radioactivity (expressed as nCi/mg) measurements by interpolation from the standard curve noted above. […]
SMILES,effect of treatment on GABA pKi at the GABAA receptor (GABAA receptor; subPCP treatment on its own),"novel object preference score (C57BL/6NCrlBr mice; subPCP/veh vs control mice, PCP 13 mg/kg s.c. once per day 14 days, 7-day washout, p < 0.001)","effect of treatment on [3H]CGP54626 Bmax (GABAB receptor) (GABAB receptor; subPCP vs saline/vehicle group, p < 0.05)","GABA pKi at the GABAA receptor, PCP/vortioxetine vs vehicle/vortioxetine group (GABAA receptor; subchronic vortioxetine combined with subPCP, p < 0.01)","increase in the affinity of GABA for the GABAA receptor (GABAA receptor; vehicle/vortioxetine vs saline/vehicle group, subchronic 1.8 g vortioxetine/kg food, p < 0.01)","novel object preference score, vehicle/vortioxetine vs vehicle/vehicle (C57BL/6NCrlBr mice; mice without PCP, 10 mg/kg s.c. bolus then 0.6 g/kg chow)","novel object preference score vs subPCP/vehicle (C57BL/6NCrlBr mice; subPCP/vortioxetine mice, 10 mg/kg s.c. bolus then 0.6 g/kg chow, p < 0.01)","[3H]CGP54626 Bmax (GABAB receptor), PCP/vortioxetine vs PCP/vehicle (GABAB receptor; subchronic vortioxetine combined with subPCP)"
"Cl.c1ccc(C2(N3CCCCC3)CCCCC2)cc1 [PCP, 1-(1-phenylcyclohexyl)-piperidine hydrochloride]",did not significantly alter,significantly lower novel object preference scores,significant reductions,,,,,
Cc1ccc(Sc2ccccc2N2CCNCC2)c(C)c1 [vortioxetine],,,,significantly lower,approximately 2.5 fold,no statistically significant difference,significantly higher novel object preference scores,no significant differences
